Test: Peroxide value of liquid crystal former according to type of stabilizer
Assay type: physicochemical
Details: 0.3 g stabilizer in 3 g safflower oil, castor oil, cottonseed oil or oleic acid; 60° C. for two weeks
Description: 0.3 g of each of tocopherol, ViC_palmitate, mannitol, and ViC_Na was added as stabilizers to 3 g of each of safflower oil, castor oil, cottonseed oil, and oleic acid. After the resulting mixture was heated at 45 to 60° C. after DI treatment, it was cooled to room temperature and left to stand for 3 hours.
The degree of rancidity was evaluated by allowing the mixture to stand under harsh conditions of 60° C. for two weeks to measure the peroxide value of the liquid crystal former.
In order to measure the peroxide value, 0.3 g of the sample was weighed into a 300-ml Erlenmeyer flask, and then 30 ml of a solution of chloroform:glacial acetic acid (2:3) was added thereto. After a temporary dark place was created with silver foil paper, 1 ml of a KI saturated solution was added, and the resulting mixture was shaken vigorously, and then left to stand in the dark place for 5 minutes. Thereafter, 30 ml of distilled water was again added thereto, 1 ml of a 1% starch solution was added thereto, and then the resulting mixture was vigorously mixed. Thereafter, the mixture was titrated with a 0.01 N-Na2S2O3 standard solution while stirring with a magnetic stirrer, and the end point was set to the time when the dark blue color of the starch disappeared. Thereafter, the peroxide value of the sample was determined using the following equation. […]

Molecule	peroxide value of the liquid crystal former
CCCCCCCCCCCCCCCC(=O)OC[C@H](O)[C@H]1OC(=O)C(O)=C1O [ViC_palmitate, ascorbic palmitate]	the peroxide values of all the liquid crystal formers used in this test example were low
tocopherol	the peroxide value is higher than when no stabilizer is used

Source: US20240180865A1, “SUSTAINED-RELEASE LIPID PRE-CONCENTRATE” (TIONLAB THERAPEUTICS, priority 2021, published 2024)
